Literature values in US20220339173A1, “ORAL COMPOSITION FOR IMPROVING MEMORY-LEARNING ABILITY” (priority 2019, published 2022).

Test system: c-Fos activity

phosphatidylserine
c-Fos activity in the hippocampus (hippocampus): no changes
c-Fos activity in the paraventricular nucleus (paraventricular nucleus): changes in c-Fos activity in the brain region are found
